Laboratory results: patent US20240293551A1, “USE OF ST-TYPE LIPID COMPOUNDS IN PREPARATION OF NUCLEIC ACID DELIVERY REAGENT AND RELATED PRODUCT” (INSTITUTE OF BASIC MEDICAL SCIENCES CHINESE ACADEMY OF …, priority 2021, published 2024)

System: PGY-sRNA-26
Assay: In vivo delivery study of lipid-nucleic acid mixture (oral gavage, RT-qPCR of PGY-sRNA-26 in tissues)
Parameters: species or system mouse
Details: C57BL/6 mice, gavage, 100 μg lipid: 10 nmol PGY-sRNA-26, 12 hours; for oral delivery of single-stranded sRNA nucleic acids into mouse intestinal tissue: intestine; for delivery efficacy over each tissue and blood tested (broad-spectrum delivery): all tissues and blood tested
Experimental: 10 nmol of small RNA (as shown in Table 2) was dissolved in 400 μl of DEPC-treated water in a glass tube, 10 μl of the corresponding lipid stock solution was added such that the lipid mass in the system was 100 μg. The mixture was mixed thoroughly, heated in a 90° C. water bath for 15 minutes, and then cooled naturally to obtain the lipid nucleic acid mixture of lipid and small RNA.
C57BL/6 male mice, approximately 6 weeks old, weighing 20-24 g, were obtained from Beijing Vital River Laboratory Animal Technology Co., Ltd. The mice were housed in the SPF-grade animal facility at the Animal Center of the Institute of Basic Medical Sciences, Chinese Academy of Medical Sciences. The mice were fasted for 12 hours before gavage administration.
The resultant lipid nucleic acid mixture was orally administered to each mouse at a dose of 100 μg lipid: 10 nmol single-stranded 3′-methylated small RNA PGY-sRNA-26.
• 1) Blank group (n=4): mice were administered with 500 μl saline by gavage, this group served as a blank control; • 2) Free uptake group (n=4): mice were directly administered with small RNA PGY-sRNA-26 solution (10 nmol/mouse, 500 μl) by gavage, this group served as a negative control; • 3) Lipid-treated group (n=4): mice were administered with 500 μl lipid nucleic acid mixture prepared in step 2 by gavage.
After 12 hours of gavage administration, 500 μl blood from the eyeball of each mouse was sampled, added to 1.5 ml Trizol Reagent LS (purchased from Invitrogen), thoroughly mixed for lysis. 3 ml of Trizol Reagent LSwas added to tissue samples and homogenized for complete lysis, wherein the sampled tissues include heart, liver, spleen, lung, kidney, stomach, intestine, brain, blood, femur. RNA was extracted from 1 ml of the blood or the tissue lysate following the steps below: • Centrifuge at 4° C., 12,000 rpm for 5 min, discard the precipitate, transfer Trizol to a new centrifuge tube; • Add chloroform at 200 μL chloroform/mL Trizol, shake well, stand at room temperature for 5 min; • Centrifuge at 4° C., 12,000 rpm for 15 min; • Take the upper aqueous phase to another centrifuge tube, add isopropanol at 0.4 mL isopropanol/mL Trizol, mix well, and stand at low temperature for 10-20 min; • Centrifuge at 4° C., 12,000 rpm for 15 min, discard the supernatant, RNA precipitated at the bottom of the tube; • Add 1 mL of 75% ethanol, gently shake the centrifuge tube, suspend the precipitate; • Centrifuge at 4° C., 12,000 rpm for 15 min, discard the supernatant, add 1 mL of 75% ethanol, gently shake the centrifuge tube, suspend the precipitate; • Centrifuge at 4° C., 12,000 rpm for 15 min, discard the supernatant, air-dry at room temperature, dissolve RNA samples in 50 μL RNase-free H2O, measure OD value to quantify RNA concentration. 3.3 Reverse Transcription of sRNA to cDNA:
The reverse transcription system is as follows: Template RNA (200 ng/μL) 10 μL, 10×RT Buffer 2.0 μL, 25×dNTP Mix (100 mM) 0.8 μL, U6 RT stem-loop primer (10 μM) 2.0 μL, PGY-sRNA-26 RT stem-loop primer (10 μM) 2.0 μL, MultiScribe™ Reverse Transcriptase (50 U/μL) 1.0 μL, RNAse Inhibitor (40 U/μL) 1.0 μL, nuclease-free H2O 1.2 μL. After transient centrifugation, the reverse transcription system was placed in a PCR machine with the following reaction conditions: (1) 25° C., 10 min; (2) 37° C., 120 min; (3) 85° C., 5 min; (4) 4° C., stop reaction. After the reaction, add 20 μL RNAse-free ddH2O, adjust the final volume to 40 μL. The stem-loop primers used in this reverse transcription process were synthesized by Beijing Tianyi Huiyuan Biotechnology Co., Ltd. (U6 was used as a standard reference gene to calculate its relative expression, because U6 RT primer was used as a reference gene in relative quantification of RT-qPCR reactions for small RNA): […]

| SMILES | oral delivery of single-stranded sRNA nucleic acids into mouse blood | oral delivery of single-stranded sRNA nucleic acids into mouse brain tissue | oral delivery of single-stranded sRNA nucleic acids into mouse femur | oral delivery of single-stranded sRNA nucleic acids into mouse heart tissue | oral delivery of single-stranded sRNA nucleic acids into mouse intestinal tissue | oral delivery of single-stranded sRNA nucleic acids into mouse liver tissue | oral delivery of single-stranded sRNA nucleic acids into mouse lung tissue | oral delivery of single-stranded sRNA nucleic acids into mouse stomach tissue | oral delivery of single-stranded sRNA nucleic acids into mouse kidney tissue | delivery efficacy over each tissue and blood tested (broad-spectrum delivery) | oral delivery of single-stranded sRNA nucleic acids into mouse spleen tissue |
| --- | --- | --- | --- | --- | --- | --- | --- | --- | --- | --- | --- |
| CC(C)CCC[C@@H](C)[C@H]1CC[C@H]2[C@@H]3CC[C@H]4C[C@@H](O)CC[C@]4(C)[C@H]3CC[C@]12C [Lipid 583, 5α-cholestan-3β-ol (3S,5S,8R,9S,10S,13R,14S,17R)-10,13-dimethyl-17-[(2R)-6-methylheptan-2-yl]-2,3,4,5,6,7,8,9,11,12,14,15,16,17-tetradecahydro-1H-cyclopenta[a]phenanthren-3-ol] | can effectively orally deliver | can effectively orally deliver | can effectively orally deliver | can effectively orally deliver | can effectively orally deliver | can effectively orally deliver | can effectively orally deliver | can effectively orally deliver | – | – | – |
| CCCCCCCCCCCCCCCCC(=O)O[C@H]1CC[C@@]2(C)C(=CC[C@H]3[C@@H]4CC[C@H]([C@H](C)CCCC(C)C)[C@@]4(C)CC[C@@H]32)C1 [Lipid 565] | can effectively orally deliver | can effectively orally deliver | can effectively orally deliver | can effectively orally deliver | can effectively orally deliver | can effectively orally deliver | – | can effectively orally deliver | can effectively orally deliver | – | – |
| C[C@]12CCC(=O)C=C1CC[C@@H]1[C@@H]2[C@@H](O)C[C@]2(C)C(=O)CC[C@@H]12 [Lipid 555] | can effectively orally deliver | can effectively orally deliver | can effectively orally deliver | can effectively orally deliver | can effectively orally deliver | can effectively orally deliver | can effectively orally deliver | can effectively orally deliver | can effectively orally deliver | exhibited the best delivery efficacy | can effectively orally deliver |
| C[C@H](CCC(=O)O)[C@H]1CC[C@H]2[C@@H]3CC[C@@H]4C[C@H](O)CC[C@]4(C)[C@H]3CC[C@]12C [Lipid 577] | can effectively orally deliver | can effectively orally deliver | can effectively orally deliver | can effectively orally deliver | can effectively orally deliver | can effectively orally deliver | can effectively orally deliver | can effectively orally deliver | can effectively orally deliver | – | – |
| C[C@@H]1CC[C@@]2(OC1)O[C@H]1C[C@H]3[C@@H]4CC=C5C[C@@H](O)CC[C@]5(C)[C@H]4CC[C@]3(C)[C@H]1[C@@H]2C [Lipid 589] | can effectively orally deliver | can effectively orally deliver | can effectively orally deliver | can effectively orally deliver | can effectively orally deliver | can effectively orally deliver | can effectively orally deliver | can effectively orally deliver | can effectively orally deliver | exhibited the best delivery efficacy | can effectively orally deliver |
| C=C1CC[C@H](O)C/C1=C/C=C1\CCC[C@]2(C)[C@@H]([C@H](C)CCCC(C)(C)O)CC[C@@H]12 [Lipid 571] | can effectively orally deliver | can effectively orally deliver | can effectively orally deliver | can effectively orally deliver | can effectively orally deliver | can effectively orally deliver | can effectively orally deliver | can effectively orally deliver | can effectively orally deliver | – | can effectively orally deliver |
| C[C@]12CCC(=O)C=C1CC[C@@H]1[C@@H]2CC[C@@]2(C)[C@H]1CC[C@]2(O)C(=O)CO [Lipid 549] | can effectively orally deliver | can effectively orally deliver | can effectively orally deliver | can effectively orally deliver | can effectively orally deliver | can effectively orally deliver | can effectively orally deliver | can effectively orally deliver | can effectively orally deliver | exhibited the best delivery efficacy | can effectively orally deliver |
